“Also recorded” adds a separate entry of the source. Where two headings read alike, the source gives them in different places.

In assay [1] the target is T1, CXXC5-DVL interaction (Homo sapiens, UniProt O14640).
T1 sequence (O14640 251-323 limits assumed): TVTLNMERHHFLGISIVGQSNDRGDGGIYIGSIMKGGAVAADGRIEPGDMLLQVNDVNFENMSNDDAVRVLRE
Briefly: in vitro CXXC5-DVL PPI inhibition screening assay (FITC-tagged PTD-DBMP on DVL-PDZ, fluorescence). The assay is classed as binding. Particulars: for inhibition at 30 µM: read-out: CXXC5-DVL inhibitory activity (%). The procedure: Screening for compounds that inhibit the CXXC5-DVL interaction. […] CELL. DEATH. DIFFER. […] After the addition of 10 μM FITC-tagged PTD-DBMP to each well, each compound in the chemical library or control (DMSO) was treated to the well at a final concentration of 30 μM. The fluorescence intensity was measured using a Fluorstar Optima microplate reader (BGM Lab Technologie, Ortenberg, Germany) and normalized as follows: “(‘compounds-treated group’−‘blank’)/(‘DMSO-treated control’−‘blank’)*100”.

Assay [2] concerns HFD-induced obese mice. Briefly: HFD-induced obese mice, oral administration during 16 weeks of HFD. Format: in vivo. Particulars: HFD 16 weeks, 25 mpk oral. Here is the method:
Anti-obesity effects of […], a small molecule […] inhibitor. Referring now to FIG. 34, C57BL/6N mice were fed HFD for 16 weeks with or without oral administration of 25 mpk […] or Orlistat. Orlistat is an anti-obesity drug that is thought to act by limiting the absorption of fats from the diet (e.g., a lipase inhibitor). […] Referring now to FIG. 35, The C57BL/6N mice were grown with HFD for 16 weeks with or without oral administration of 25 mpk of […], […], and I3O. […] The increase in adipocyte cell sizes and enhancement of inflammation (evaluated by crown like structures; blue; FIG. 35B) were suppressed by treatment with […] in the HFD mice.

Assay [3] deals with Wnt/β-catenin signaling. Briefly: Wnt/β-catenin signaling (TOPFlash) reporter luciferase assay in HEK293-TOP cells. Format: cell-based. Here is the method: Luciferase reporter assay. HEK293-TOP cells were seeded in 24-well plates. Cells were treated with A3334 at a concentration of 1, 5, and 10 μM for 24 h. Total cell lysates were extracted with 35 μl of 5× Reporter Lysis Buffer per well according to the manufacturer's instructions (Promega). A total of 35 μl of luciferin was added and luciferase activity was measured using a Fluorstar Optima microplate reader.
Wnt/β-catenin signaling reporter luciferase assay. HEK293-TOP cells were seeded were seeded in 96-well plates at a density of 2.5×10^4 cells per well. Cells were treated with individual chemicals at a concentration of 1, 5, 10 µM for 24 h. Total cell lysates were extracted with 25 µl of 5× Reporter Lysis Buffer per well according to the manufacturer's instruction (Promega, Madison, WI). Luciferin (25 µl) was added and luciferase activity was measured using FLUOSTAR (BMG labtech, Offenburg, Germany).

Assay [4] has as its target T1, CXXC5-DVL interaction. Briefly: Dvl-CXXC5 in vitro binding assay, (PTD-DBMP)-(PZD-DVL), concentration dependent. Particulars: FIG. 33A-33C; unit inferred; read-out: IC50, in vitro (PTD-DBMP)-(PZD-DVL) binding analyses.
Assay [5] relates to HFD-fed mice. The assay is described as follows: HFD-induced obesity/diabetes mice, 5-day oral courses at weeks 8/9 and 12. Format: in vivo. Particulars: HFD mice; for fasting glucose level / persistence of fasting glucose control after end of treatment: p.o. daily 5 days at weeks 8/9 and 12; for fasting glucose level: A3334, A3051, I3O 25, sitagliptin 50, metformin 100 mg/kg; for levels of GTT/ITT, total cholesterol, fasting glucose, triglyceride, FFAs in serum: A3334 25, metformin 100, sitagliptin 50 mpk (FIG. 38B-38F); for persistence of fasting glucose control after end of treatment: A3334 25, sitagliptin 50, metformin 100 mg/kg. The source says:
Animals. The generation of Cxxc5^−/− mice has been described previously. Cxxc5 heterozygous mice were intercrossed for four generations to obtain littermate wild-type and Cxxc5^−/− mice and were maintained on a C57BL/6 background. Six-week-old Cxxc5^+/+ and Cxxc5^−/− mice were fed HFD for 8 weeks. Wild-type male C57BL/6 mice (KOATECH, Seoul, Korea) were fed HFD consisting of 60% calories from fat (Research Diet, D12492) for 8 weeks. To validate that the insulin resistance mouse model was successfully established, fasting glucose levels were assessed with a One Touch Ultra glucometer (LifeScan). Subsequently, each HFD-fed mouse with a fasting glucose level higher than 16.7 mmol/L was orally administered A3334 (25 mg kg^−1), sitagliptin (50 mg kg^−1), or metformin (100 mg kg^−1) each day for 5 days at weeks 8 and 12. After the removal of the drugs, mice were maintained for 3 weeks on the HFD. To monitor pancreas regeneration, six-week-old Cxxc5^+/+ and Cxxc5^−/− mice were fed an HFD as above. After dietary treatment for 4 weeks, the mice were intraperitoneally injected with STZ (50 mg/kg/d) for 1 week and the control group were injected with saline. After 2 weeks, Cxxc5^+/+ mice were administered A3334 (25 mg kg^−1) and sitagliptin (50 mg kg^−1) per day by oral gavage for 4 weeks. For GTT or ITT, mice were injected with D-glucose (1.5 g/kg body weight) after overnight starvation or human insulin (0.75 units/kg body weight) after 4 h starvation, respectively. Tail blood was drawn at 0, 15, 30, 60, 120, 180 min intervals and blood glucose level was measured with a One Touch Ultra glucometer. All mice were maintained under temperature-controlled and light-controlled (standard 12 h light/dark cycle) conditions and provided with food and water ad libitum. All protocols were reviewed and approved by the Institutional Review Board of Severance Hospital, Yonsei University College of Medicine (09-013).
Blood chemistry. Total blood of mice was collected by cardiac puncture after fasting. The blood was allowed to clot for 30 min and was then centrifuged for 10 min at 1,000×g to obtain supernatant to measure metabolic parameters. ELISA assay kits were used to assess serum insulin (Millipore), serum FFA (Cayman Chemical), serum adiponectin (ABclonal). The insulin function test was evaluated by HOMA-IR and was calculated as fasting plasma glucose (m mol/l)×fasting serum insulin (mU/l)/22.5. Serum chemistry variables included total cholesterol, HDL-cholesterol, glucose, TG, ALT, AST, ALP, Ca, and Mg concentration. The calibration of serum parameters was performed using the quality control card supplied with the FUJI DRI-CHEM slides whenever slides from a new lot were used. […]
Hematoxylin and eosin (H&E) staining. Dissected tissues were fixed in 4% neutral paraformaldehyde and embedded in paraffin. The paraffin sections were cut at a thickness of 4 μm and subjected to H&E staining. The adipocyte cell size was measured in 20 randomly chosen microscopic areas from 3 independent animals using a Nikon bright-field optical microscope (Nikon TE-2000U). The average adipocyte size was determined using Image J software. […]
Metabolic monitoring and body composition. Metabolic performance (energy intake and energy expenditure) was studied using a PHENOMASTER automated combined indirect calorimetry system (TSE system GmBH). The mice were first acclimated for 24 h in a metabolic chamber and were provided with food and water. They were then subsequently evaluated for 3 days to measure oxygen consumption (VO2), carbon dioxide production (VCO2), ambulatory counts, and respiratory exchange ratio. An LF50 body composition analyzer (Bruker) was used to determine body composition (lean body mass and total body fat) of the mice. The temperature for these studies remained at 22° C., with a 12 h light/dark cycle. Standard in-house software was used for energy expenditure.
Quantitative real-time polymerase chain reaction (PCR). […]

Assay [6] concerns MCD-induced NASH mice. The assay is described as follows: MCD diet-induced NASH mice. The assay is classed as in vivo. Particulars: MCD diet 7 weeks, then 25 mg/kg daily oral gavage 3 weeks. Here is the method:
NASH study. Eight-week-old wild-type male C57BL/6N mice (KOATECH, Seoul, Korea) were fed on the methionine-choline deficient (MCD) diet for 7 weeks, followed by treatment with vehicle, A3334, A3051, or I3O of (25 mg kg^−1) sitagliptin (25 mg kg^−1) for another 3 weeks via daily oral gavage.
Collagen staining. 4 µm-liver tissues sections were stained using two common collagen staining methods. For Masson's trichrome staining, slides were fixed in Bouin's solution for 1 h. After incubation in Weigert's iron hematoxylin solution for 10 min, the slides were stained with Biebrich Scarlet-Acid Fuchsin and Aniline blue for 5 min. The collagen fibers were stained blue and the nuclei were stained black. For picrosirius red staining, sections were stained with Weigert's solution for 8 min and picrosirius red for 1 h. The collagen fibers were stained red with blue nuclei.

Take `COc1ccc(C)cc1/N=N/c1ccc(O)c2nc(/C=N/O)ccc12` [Compound 1]: the inhibition at 30 µM in assay [1] (30 μM) came to 85.2%. On the same count and under the same terms, as for `COc1ccc(C2CC(C(F)(F)F)n3ncc(C(=O)O)c3N2)cc1OC` (stereo not shown) [Compound 2], the figure is 90.6%. Same read-out and setting: the figure for `Cc1cc(C)c2c(O)nc(SCC(=O)c3ccc(O)c(O)c3)nc2n1` [Compound 3] is 88.2%; for `COC(=O)C1=C(C)N/C(=C/c2cc(C)n(-c3ccccc3F)c2C)C1=O` [Compound 4] it is 87.6%. Consider `O=C(O)C1Sc2[nH]c(=O)sc2C2c3cc(Br)cc(Br)c3OC(=O)C12` (stereo not shown) [Compound 5], for which the inhibition at 30 µM in assay [1] (30 μM) is 90.5%.

Take `CCN(CC)S(=O)(=O)c1ccc(OC)c(Nc2cc(-c3ccccc3)nc(C)n2)c1` [Compound 6]: the inhibition at 30 µM in assay [1] (30 μM) was determined as 58.2%.

In the case of `COc1ccc(C2CC(=O)C3=C(C2)Nc2onc(C)c2C3c2ccc(O)c(O)c2)cc1OC` (stereo not shown) [Compound 7], the inhibition at 30 µM in assay [1] (30 μM) is 90.9%.

Take `CN1CCc2cc(O)cc3c2[C@H]1Cc1ccc(O)c(O)c1-3` [Compound 9]: in assay [1] (30 μM), the inhibition at 30 µM turned out to be 89.4%. Take `NC(Cc1cc(O)c(O)cc1O)C(=O)O` (stereo not shown) [Compound 10]: the inhibition at 30 µM in assay [1] came out at 90.3%.

With `O=c1cc(O)cc(/C=C/c2ccc(O)c(O)c2)o1` [Compound 11], the inhibition at 30 µM in assay [1] (30 μM) worked out at 90%. Still for that read-out and setting: as for `O=c1c(O)c(-c2cc(O)c(O)c(O)c2)oc2cc(O)cc(O)c12` [Compound 13], the figure is 85.2%. Still for that read-out and setting: as for `CC(N)(Cc1ccc(O)c(O)c1)C(=O)O` (stereo not shown) [Compound 14], the figure is 85.2%; as for `O=c1c(O)c(-c2ccc(O)cc2O)oc2cc(O)cc(O)c12` [Compound 15], 85.4%. In the case of `CN(C)c1ccc(O)c2c1C[C@H]1C[C@H]3[C@H](N(C)C)C(O)=C(C(N)=O)C(=O)[C@@]3(O)C(O)=C1C2=O` [Compound 16], the inhibition at 30 µM in assay [1] stood at 87.9%.

`Oc1cc(O)cc(/C=C/c2ccc(O)c(O)c2)c1` [Compound 17]: in assay [1] (30 μM), the inhibition at 30 µM is 85.2%. Still for that read-out and setting: the figure for `O=C(OCCN1CCOCC1)C1(c2ccccc2)CCCCC1` [Compound 18] is 86.8%. For orientation: IC50 means the point on the concentration scale where inhibition reaches its midpoint. Turning to `O=C1Nc2ccccc2/C1=C1/Nc2ccccc2/C1=N\O` [Compound I3O, Indirubin-3′-oxime, reference compound], the “adipocyte cell size and inflammation (crown like structures)” value in assay [2] was “showed reduction in adipocyte size and anti-inflammatory effects, but those effects were lower when compared to that of the A3334 treatment”. Besides, in assay [3], the “Wnt/β-catenin (TOPFlash) reporter activity” value is given as “showed effectiveness in the activation of Wnt/β-catenin pathway”. In addition, in assay [4], the concentration for half-maximal inhibition (IC50) stood at 98.9 nM. Moreover, the fasting glucose level entry in assay [5] was “also reduced fasting glucose. However, effects of A3051 and I3O is similar to or little bit weaker than SITA”. The “inhibition of CXXC5-DVL interaction (in words)” value in assay [1] is given as “identified as initial hits”; in assay [1] (listed as #12), “repeatedly identified as CXXC5-DVL inhibitors”. The inhibition at 30 µM in assay [1] (30 μM) amounted to 89%. Moreover, the “hepatosteatosis (H&E)” value in assay [6] is on record as “also reduced hepatosteatosis, but revealed only marginal effects compared to A3334”. For the compound `CN(C)C(=N)N=C(N)N` [metformin, reference compound], in assay [5], the “serum ALT, AST, FFA (and TG)” value is given as “increased by metformin”; the “levels of GTT/ITT, total cholesterol, fasting glucose, triglyceride, FFAs in serum” value is reported as “weaker than those of A3333”; the “persistence of fasting glucose control after end of treatment” value is given as “this prolonged effect was not shown; also recorded: showed an increased fasting glucose level after their second application”; the fasting glucose level result is recorded as “reduced similarly by treatment with all of these compounds at initial applications”. Turning to `N[C@@H](CC(=O)N1CCn2c(nnc2C(F)(F)F)C1)Cc1cc(F)c(F)cc1F` [sitagliptin, reference compound], in assay [5], the “mRNA of M1 and M2 macrophage marker genes in epiWAT” value is recorded as “did not significantly change the expression of inflammation or the Wnt/β-catenin signaling target genes”; the “serum ALT, AST, FFA (and TG)” value was “weakly reduced by SITA even at a higher concentration”; the “levels of GTT/ITT, total cholesterol, fasting glucose, triglyceride, FFAs in serum” value was “weaker than those of A3333”; the “persistence of fasting glucose control after end of treatment” value is “this prolonged effect was not shown; also recorded: showed an increased fasting glucose level after their second application”. For the same compound, in assay [5], the fasting glucose level result was “reduced similarly by treatment with all of these compounds at initial applications”. The “hepatic steatosis (lipid droplets, fatty liver, hepatic TG)” value in assay [5] (H&E, Oil Red O) was “exhibited only a marginal effect”. In assay [5] (mRNA), the “Wnt/β-catenin target genes and lipogenesis/inflammation genes in white adipose tissue” value is reported as “did not significantly change the expression of inflammation or the Wnt/β-catenin signaling target genes”; the “lipogenesis and gluconeogenesis genes in liver” value is “reduced by both A3334 and SITA, but A3334 showed better effectiveness”. The “hepatosteatosis (H&E)” value in assay [6] is “also reduced hepatosteatosis, but revealed only marginal effects compared to A3334”.

The values are drawn from US20240425457A1, “COMPOSITIONS AND METHODS FOR SUPPRESSING AND/OR TREATING METABOLIC DISEASES AND/OR A CLINICAL CONDITION THEREOF” (CK Biotech Inc., priority 2018, published 2024).
